{
  "source": "patent US12246010B2",
  "about": "“Formulations of tegavivint and related compounds” (Iterion Therapeutics, Inc., priority 2018, dated 2025)",
  "key": {"[1]": {"experiment": "Pharmacokinetics after slow intravenous bolus in female Sprague-Dawley rats", "assay_type": "in vivo", "details": "10 mg/kg slow intravenous bolus; for half-life: iv, 10 mg/kg", "experimental": "The objective of this study was to investigate the pharmacokinetics of tegavivint following a single intravenous slow bolus administration of tegavivint to female Sprague-Dawley rats.\nDose Preparation and Administration The stock formulation (25 mg/mL) was provided. Accurately, 600 μL of dose formulation (Stock, 25 mg/mL) was transferred to labeled glass container. To this, 2.4 mL of 5% dextrose solution was added, vortex mixed and sonicated to obtain homogeneous suspension of 5 mg/mL strength. Animals were dosed underfed condition. Rats were administered a single dose of 10 mg/kg of tegavivint by slow intravenous bolus (over 1.5 min) jugular vein catheter using 1 mL BD syringe guided with 23 G blunt needle at a dose volume of 2 mL/kg. Syringes used for dosing were weighed before and after dose administration in order to calculate the actual dose administered.\nSample Collection and Processing Blood samples were collected at 0.083, 0.25, 0.5, 1, 2, 4, 6, 8, 12 and 24 h post dose. At each time point, approximately, 0.25 mL of blood was withdrawn from jugular vein of the cannulated rat and transferred to a labeled microfuge tube containing 200 mM K2EDTA (20 μL per mL of blood). Following sampling, equal volume of heparinized saline was replaced into the catheter. The blood samples were kept on wet ice at all times immediately after collection and the plasma was separated by centrifugation at 5000 g for 5 minutes at 4±2° C. The plasma samples were separated within 1 h of scheduled time and stored below −60° C. until bioanalysis.\nBioanalysis Bioanalysis was performed using fit-for-purpose LC-MS/MS method for the quantification of BC2059 in rat plasma samples. The calibration curve (CC) for the method consisted of at least 6 non-zero calibration standards along with a blank and blank with internal standard samples with a lower limit of quantification (LLOQ) of 0.050 μg/mL. Study samples were analyzed along with three sets of quality control samples (9 QC samples; low, medium and high QC samples in triplicate).\nPharmacokinetic Data Analysis The pharmacokinetic parameters for tegavivint were calculated using the non-compartmental analysis tool ([…]) of the validated Phoenix® WinNonlin® software (version 6.3). The area under the concentration time curve (AUClast and AUCinf) was calculated by linear trapezoidal rule. The CO (back extrapolated concentration at time zero) was estimated following intravenous bolus dose administration by back-extrapolating the first two concentration values. The total plasma clearance (CL) and volume of distribution at steady-state (Vss) were estimated values. The elimination rate constant value (k) was calculated by linear regression of the log-linear terminal phase of the concentration-time profile using at least 3 declining concentrations in terminal phase with a correlation coefficient of >0.8. The terminal half-life value (T½) was calculated using the equation 0.693/k. The alpha and beta half-lifes were calculated and reported."}, "[2]": {"experiment": "Dose-escalating intravenous infusion study in male Beagle dogs (plasma PK)", "assay_type": "in vivo", "details": "dog", "experimental": "• Study Animals: Four male non-naïve Beagle dogs were released by Xenometrics for study use on Apr. 20, 2017. The animals were fed Harlan Teklad® Global 25% Protein Certified Dog Diet 2025C ad libitum throughout the study (except for brief periods during in-life procedures when it was • Dosing: Animals were dosed via intravenous (IV) infusion (via jugular vein) for 4 hours (h) [±5 minutes (min)].\n[…] All blood samples were collected within 10 minutes of the target time and processed per protocol. Bioanalytical results indicated tegavivint was present in all plasma samples.\nThe pharmacokinetic parameters were determined for BC-2059 following the final 15 mg/kg infusion of the drug over 4 h."}, "[3]": {"experiment": "Aerosol particle size distribution by cascade impactor", "assay_type": "physicochemical", "details": "Covaris and Ball Mill (60 min); 0.1% Tween 80; 15.06 mg/mL; Hospitak", "experimental": "Particle size distribution (PSD) of the test article was measured at the breathing zone using an In Tox, mercer style cascade impactor.\nParticle size for test atmospheres was measured using an In-Tox Cascade impactor for suspensions prepared with 0.1% Tween 80 in ultrapure water, and the sponsor provided poloxamer suspension using a compressed air nebulizer."}, "[4]": {"details": "female, Sprague-Dawley, plasma, rat"}, "[5]": {"details": "15 mg/kg 4 h IV infusion, individual animals, 15 mg/kg"}},
  "note": "“And” between values parts separate entries of the source, which are not always exact repeats. Equal values may be shown once.",
  "data": [
    {"smiles": "C[C@@H]1C[C@H](C)CN(S(=O)(=O)c2ccc3c(c2)C(=NO)c2cc(S(=O)(=O)N4C[C@H](C)C[C@H](C)C4)ccc2C3=NO)C1", "note": "[BC2059, tegavivint]", "values": [
      {"measurement": "CL lower than normal rat liver blood flow of 55 mL/min/kg", "setting": "[1]", "result": "about 5.5 fold"},
      {"measurement": "AUC(0-inf)", "setting": "[1]; [4]", "result": 17200, "unit": "ng·h/mL"},
      {"measurement": "AUC(0-t)", "setting": "[1]; [4]", "result": 14600, "unit": "ng·h/mL"},
      {"measurement": "MRT last", "setting": "[1]; [4]", "result": 4.07, "unit": "h"},
      {"measurement": "C0", "setting": "[1]; female, Sprague-Dawley, plasma, rat, back extrapolated", "result": 62200, "unit": "ng/mL"},
      {"measurement": "clearance", "setting": "[1]; female, Sprague-Dawley, plasma, rat, mean, n=4", "result": 9.92, "unit": "mL/min/kg"},
      {"measurement": "Vd", "setting": "[1]; female, Sprague-Dawley, plasma, rat, mean, n=4, read-out: Vss", "result": 6.54, "unit": "L/kg"},
      {"measurement": "half-life", "setting": "[1]; female, Sprague-Dawley, rat, plasma, regression points 0.5, 1 and 2 h, read-out: T1/2 Alpha (converted)", "result": 0.546, "unit": "h"},
      {"measurement": "half-life", "setting": "[1]; female, Sprague-Dawley, rat, plasma, regression points 6, 8, 12 and 24 h, read-out: T1/2 Beta (converted)", "result": 13.8, "unit": "h"},
      {"measurement": "Vss greater than normal body water of 0.7 L/kg", "setting": "[1]; rat", "result": "~9.34", "unit": "fold"},
      {"measurement": "Plasma BC-2059, 4 h", "setting": "[2]; [5]", "result": "1310 ng/mL and 1320 ng/mL and 1150 ng/mL"},
      {"measurement": "Plasma BC-2059, 12 h", "setting": "[2]; [5]", "result": "916.0 ng/mL and 1050 ng/mL and 777 ng/mL"},
      {"measurement": "Plasma BC-2059, 24 h", "setting": "[2]; [5]", "result": "1120 ng/mL (2×) and 1070 ng/mL"},
      {"measurement": "Plasma BC-2059, 36 h", "setting": "[2]; [5]", "result": "834 ng/mL and 931 ng/mL and 708 ng/mL"},
      {"measurement": "Plasma BC-2059, 48 h", "setting": "[2]; [5]", "result": "663 ng/mL and 656 ng/mL and 647 ng/mL"},
      {"measurement": "Plasma BC-2059, 72 h", "setting": "[2]; [5]", "result": "511 ng/mL and 480 ng/mL and 524 ng/mL"},
      {"measurement": "Plasma BC-2059, 96 h", "setting": "[2]; [5]", "result": "360 ng/mL and 310 ng/mL and 364 ng/mL"},
      {"measurement": "Plasma BC-2059, 120 h", "setting": "[2]; [5]", "result": "321 ng/mL and 262 ng/mL and 281 ng/mL"},
      {"measurement": "Plasma BC-2059, Predose", "setting": "[2]; prior to Dose 6 (15 mg/kg 4 h IV infusion), individual animals, 15 mg/kg", "result": "257 ng/mL and 404 ng/mL and 309 ng/mL and 284 ng/mL"},
      {"measurement": "concentration at 4 h", "setting": "[2]; male, Beagle, plasma, iv, 15 mg/kg, 15 mg/kg 4 h IV infusion, individual animals, read-out: Plasma BC-2059, 4 h", "result": 1600, "unit": "ng/mL"},
      {"measurement": "concentration at 12 h", "setting": "[2]; male, Beagle, plasma, iv, 15 mg/kg, 15 mg/kg 4 h IV infusion, individual animals, read-out: Plasma BC-2059, 12 h", "result": 784, "unit": "ng/mL"},
      {"measurement": "concentration at 24 h", "setting": "[2]; male, Beagle, plasma, iv, 15 mg/kg, 15 mg/kg 4 h IV infusion, individual animals, read-out: Plasma BC-2059, 24 h", "result": 723, "unit": "ng/mL"},
      {"measurement": "concentration at 36 h", "setting": "[2]; male, Beagle, plasma, iv, 15 mg/kg, 15 mg/kg 4 h IV infusion, individual animals, read-out: Plasma BC-2059, 36 h", "result": 674, "unit": "ng/mL"},
      {"measurement": "concentration at 48 h", "setting": "[2]; male, Beagle, plasma, iv, 15 mg/kg, 15 mg/kg 4 h IV infusion, individual animals, read-out: Plasma BC-2059, 48 h", "result": 664, "unit": "ng/mL"},
      {"measurement": "concentration at 72 h", "setting": "[2]; male, Beagle, plasma, iv, 15 mg/kg, 15 mg/kg 4 h IV infusion, individual animals, read-out: Plasma BC-2059, 72 h", "result": 393, "unit": "ng/mL"},
      {"measurement": "concentration at 96 h", "setting": "[2]; male, Beagle, plasma, iv, 15 mg/kg, 15 mg/kg 4 h IV infusion, individual animals, read-out: Plasma BC-2059, 96 h", "result": 277, "unit": "ng/mL"},
      {"measurement": "concentration at 120 h", "setting": "[2]; male, Beagle, plasma, iv, 15 mg/kg, 15 mg/kg 4 h IV infusion, individual animals, read-out: Plasma BC-2059, 120 h", "result": 228, "unit": "ng/mL"},
      {"measurement": "Cmax", "setting": "[2]; male, Beagle, plasma, 15 mg/kg IV over 4 h, mean, n = 4 males", "result": "1340 ± 187", "unit": "ng/mL"},
      {"measurement": "AUC(0-t)", "setting": "[2]; male, Beagle, plasma, 15 mg/kg IV over 4 h, mean, n = 4 males, read-out: AUC0-120 h", "result": 73500, "unit": "ng·h/mL"},
      {"measurement": "half-life", "setting": "[2]; male, Beagle, plasma, 15 mg/kg IV over 4 h, mean, n = 4 males, read-out: T½ (converted)", "result": 53, "unit": "h"},
      {"measurement": "GSD", "setting": "[3]", "result": 2.21},
      {"measurement": "MMAD", "setting": "[3]", "result": 1.26, "unit": "µm"}
    ]}
  ]
}
